According to patent publication US20230278972A1, “SUBSTITUTED HALOALKYL SULFONANILIDE HERBICIDES” (FMC Corporation, priority 2020, published 2023):

Assays:
Assay type in all cases: in vivo
[1] = system: Oat, Wild (wild oat, Avena fatua); assay: Test A1 postemergence, Oat, Wild; conditions: for Plant response rating, Oat, Wild: Postemergence; for Oat, Wild plant response rating: postemergence
How it was run: (§1)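 Plants grown in pots of loam/sand mix; preemergence = soil-directed spray on seeded pots, postemergence = spray at 1–2 leaves, height 2–10 cm; test chemicals formulated in non-phytotoxic solvent with surfactant.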

kochia (Bassia scoparia) [2] = assay: Test A1 preemergence, kochia
How it was run: (§2)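 Seeds were first planted into a blend of loam soil and sand and given a preemergence directed soil spray. In parallel, pots of the same soil were sown for postemergence application once plants reached 2 to 10 cm and the one- to two-leaf stage. Both used surfactant-containing non-phytotoxic solvent formulations.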

kochia (Bassia scoparia) [3] = assay: Test A1 postemergence, kochia; conditions: for Plant response rating, Kochia: Postemergence; for Kochia plant response rating: postemergence
How it was run: as §1

[4] = system: Ryegrass, Italian (Italian ryegrass, Lolium multiflorum); assay: Test A1 preemergence, Ryegrass, Italian
How it was run: as §2

[5] = system: Ryegrass, Italian (Italian ryegrass, Lolium multiflorum); assay: Test A1 postemergence, Ryegrass, Italian; conditions: for Plant response rating, Ryegrass, Italian: Postemergence; for Ryegrass, Italian plant response rating: postemergence
How it was run: as §1

[6] = 31 g ai/ha, 0 to 100 scale (0 no effect, 100 complete control), 10 days
[7] = 31 g ai/ha, 0 to 100 scale (0 no effect, 100 complete control)
[8] = 125 g ai/ha, 0 to 100 scale, 0 no effect, 100 complete control

Which “Plant response rating, Oat, Wild” value [1, 6] does the source give for `Cc1c(NS(=O)(=O)C(F)(F)F)cc(C(=O)N2CCCCC2)c(C)c1C` [Compound 326] here?
Its value is 0.

What about the “Plant response rating, Oat, Wild” value ([1]; 125 g ai/ha, 0 to 100 scale) of the same compound?
The value was 0.

And the “Plant response rating, Kochia” value (kochia (Bassia scoparia) [2]; [7])?
The value was 80.

What about the “Plant response rating, Kochia” value (kochia (Bassia scoparia) [2]; [8]) of the same compound?
The value was 80.

And the “Plant response rating, Kochia” value (kochia (Bassia scoparia) [3]; [6])?
Its value is 30.

And the “Plant response rating, Kochia” value (kochia (Bassia scoparia) [3]; 125 g ai/ha, 0 to 100 scale)?
Its value is 70.

And the “Plant response rating, Ryegrass, Italian” value [4, 7]?
The value was 20.

And the “Plant response rating, Ryegrass, Italian” value [4, 8]?
The value was 70.

What about the “Plant response rating, Ryegrass, Italian” value [5, 6] of the same compound?
Its value is 0.

What about the “Plant response rating, Ryegrass, Italian” value ([5]; 125 g ai/ha, 0 to 100 scale) of the same compound?
Its value is 30.

What does the source list for `Cc1c(NS(=O)(=O)C(F)(F)F)cc(C(=O)N2CCC(C)CC2)c(C)c1C` [Compound 366]?
Oat, Wild plant response rating [1, 7]: 0; Plant response rating, Oat, Wild ([1]; 125 g ai/ha, 0 to 100 scale): 0; Plant response rating, Kochia (kochia (Bassia scoparia) [2]; [7]): 0; Plant response rating, Kochia (kochia (Bassia scoparia) [2]; [8]): 30; Kochia plant response rating (kochia (Bassia scoparia) [3]; [7]): 0; Plant response rating, Kochia (kochia (Bassia scoparia) [3]; 125 g ai/ha, 0 to 100 scale): 30; Plant response rating, Ryegrass, Italian [4, 7]: 0; Plant response rating, Ryegrass, Italian [4, 8]: 40; Ryegrass, Italian plant response rating [5, 7]: 0; Plant response rating, Ryegrass, Italian ([5]; 125 g ai/ha, 0 to 100 scale): 20

How did the “Plant response rating, Oat, Wild” value [1, 6] turn out when `CCc1cc(C)c(C2=NOC3(CCCC3)C2)cc1NS(=O)(=O)C(F)(F)F` [Compound 311] was run?
The value was 0.

What about the “Plant response rating, Oat, Wild” value ([1]; 125 g ai/ha, 0 to 100 scale) of the same compound?
Its value is 0.

And the “Plant response rating, Kochia” value (kochia (Bassia scoparia) [2]; [7])?
The value was 0.

And the “Plant response rating, Kochia” value (kochia (Bassia scoparia) [2]; [8])?
Its value is 0.

And the “Plant response rating, Kochia” value (kochia (Bassia scoparia) [3]; [6])?
The value was 0.

And the “Plant response rating, Kochia” value (kochia (Bassia scoparia) [3]; 125 g ai/ha, 0 to 100 scale)?
The value was 0.

What about the “Plant response rating, Ryegrass, Italian” value [4, 7] of the same compound?
The value was 0.

What about the “Plant response rating, Ryegrass, Italian” value [4, 8] of the same compound?
The value was 60.

What about the “Plant response rating, Ryegrass, Italian” value [5, 6] of the same compound?
Its value is 0.

What about the “Plant response rating, Ryegrass, Italian” value ([5]; 125 g ai/ha, 0 to 100 scale) of the same compound?
Its value is 0.

With `Cc1cc(C)c(N(COC(=O)C(C)(C)C)S(=O)(=O)C(F)(F)F)cc1C1=NOC2(C)CCCC12` (stereo not shown) [Compound 341] as the compound, how does the “Plant response rating, Oat, Wild” value [1, 6] read?
The value was 0.

What about the “Plant response rating, Oat, Wild” value ([1]; 125 g ai/ha, 0 to 100 scale) of the same compound?
The value was 20.

What about the “Plant response rating, Kochia” value (kochia (Bassia scoparia) [2]; [7]) of the same compound?
The value was 0.

What about the “Plant response rating, Kochia” value (kochia (Bassia scoparia) [2]; [8]) of the same compound?
Its value is 40.

What about the “Plant response rating, Kochia” value (kochia (Bassia scoparia) [3]; [6]) of the same compound?
Its value is 20.

What about the “Plant response rating, Kochia” value (kochia (Bassia scoparia) [3]; 125 g ai/ha, 0 to 100 scale) of the same compound?
The value was 30.

What about the “Plant response rating, Ryegrass, Italian” value [4, 7] of the same compound?
Its value is 0.

What about the “Plant response rating, Ryegrass, Italian” value [4, 8] of the same compound?
Its value is 40.

What about the “Plant response rating, Ryegrass, Italian” value [5, 6] of the same compound?
The value was 0.

And the “Plant response rating, Ryegrass, Italian” value ([5]; 125 g ai/ha, 0 to 100 scale)?
The value was 0.

With `CCC1ON=C(c2cc(NS(=O)(=O)C(F)(F)F)c(C)cc2C)C1CC` (stereo not shown) [Compound 343] as the compound, how does the “Plant response rating, Oat, Wild” value [1, 6] read?
Its value is 0.

And the “Plant response rating, Oat, Wild” value ([1]; 125 g ai/ha, 0 to 100 scale)?
Its value is 50.

What about the “Plant response rating, Kochia” value (kochia (Bassia scoparia) [2]; [7]) of the same compound?
The value was 30.

What about the “Plant response rating, Kochia” value (kochia (Bassia scoparia) [2]; [8]) of the same compound?
The value was 70.

And the “Plant response rating, Kochia” value (kochia (Bassia scoparia) [3]; [6])?
The value was 20.

What about the “Plant response rating, Kochia” value (kochia (Bassia scoparia) [3]; 125 g ai/ha, 0 to 100 scale) of the same compound?
The value was 60.

What about the “Plant response rating, Ryegrass, Italian” value [4, 7] of the same compound?
Its value is 60.

And the “Plant response rating, Ryegrass, Italian” value [4, 8]?
Its value is 100.

And the “Plant response rating, Ryegrass, Italian” value [5, 6]?
Its value is 20.

What about the “Plant response rating, Ryegrass, Italian” value ([5]; 125 g ai/ha, 0 to 100 scale) of the same compound?
The value was 80.

Which results are given for `CCC1ON=C(c2cc(NS(=O)(=O)C(F)(F)F)c(C)cc2C)C1CC` (stereo not shown) [Compound 346]?
Plant response rating, Oat, Wild [1, 6]: 20; Plant response rating, Oat, Wild ([1]; 125 g ai/ha, 0 to 100 scale): 40; Plant response rating, Kochia (kochia (Bassia scoparia) [2]; [7]): 30; Plant response rating, Kochia (kochia (Bassia scoparia) [2]; [8]): 30; Plant response rating, Kochia (kochia (Bassia scoparia) [3]; [6]): 30; Plant response rating, Kochia (kochia (Bassia scoparia) [3]; 125 g ai/ha, 0 to 100 scale): 60; Plant response rating, Ryegrass, Italian [4, 7]: 50; Plant response rating, Ryegrass, Italian [4, 8]: 90; Plant response rating, Ryegrass, Italian [5, 6]: 0; Plant response rating, Ryegrass, Italian ([5]; 125 g ai/ha, 0 to 100 scale): 80

`CCc1cc(C)c(NS(=O)(=O)C(F)(F)F)cc1C1=NOC2CCCC12` (stereo not shown) [Compound 305] was tested. Which “Plant response rating, Oat, Wild” value [1, 6] did it give?
Its value is 20.

And the “Plant response rating, Oat, Wild” value ([1]; 125 g ai/ha, 0 to 100 scale)?
Its value is 20.

What about the “Plant response rating, Kochia” value (kochia (Bassia scoparia) [2]; [7]) of the same compound?
Its value is 0.

What about the “Plant response rating, Kochia” value (kochia (Bassia scoparia) [2]; [8]) of the same compound?
The value was 40.

What about the “Plant response rating, Kochia” value (kochia (Bassia scoparia) [3]; [6]) of the same compound?
Its value is 0.

What about the “Plant response rating, Kochia” value (kochia (Bassia scoparia) [3]; 125 g ai/ha, 0 to 100 scale) of the same compound?
The value was 10.

What about the “Plant response rating, Ryegrass, Italian” value [4, 7] of the same compound?
The value was 40.

What about the “Plant response rating, Ryegrass, Italian” value [4, 8] of the same compound?
Its value is 90.

And the “Plant response rating, Ryegrass, Italian” value [5, 6]?
Its value is 0.

What about the “Plant response rating, Ryegrass, Italian” value ([5]; 125 g ai/ha, 0 to 100 scale) of the same compound?
The value was 40.

Which “Plant response rating, Oat, Wild” value [1, 6] does the source give for `Cc1cc(C)c(C2=NOC3(C)CCCC23)cc1NS(=O)(=O)C(F)(F)F` (stereo not shown) [Compound 340] here?
The value was 0.

What about the “Plant response rating, Oat, Wild” value ([1]; 125 g ai/ha, 0 to 100 scale) of the same compound?
The value was 20.

What about the “Plant response rating, Kochia” value (kochia (Bassia scoparia) [2]; [8]) of the same compound?
Its value is 60.

What about the “Plant response rating, Kochia” value (kochia (Bassia scoparia) [3]; [6]) of the same compound?
The value was 20.

What about the “Plant response rating, Kochia” value (kochia (Bassia scoparia) [3]; 125 g ai/ha, 0 to 100 scale) of the same compound?
Its value is 50.

What about the “Plant response rating, Ryegrass, Italian” value [4, 7] of the same compound?
The value was 50.

What about the “Plant response rating, Ryegrass, Italian” value [4, 8] of the same compound?
The value was 100.

And the “Plant response rating, Ryegrass, Italian” value [5, 6]?
The value was 0.

And the “Plant response rating, Ryegrass, Italian” value ([5]; 125 g ai/ha, 0 to 100 scale)?
Its value is 20.

Which results are given for `C#CCN(C)C(=O)c1cc(N(COC(=O)C(C)(C)C)S(=O)(=O)C(F)(F)F)c(C)c(C)c1C` [Compound 371]?
Oat, Wild plant response rating [1, 7]: 0; Plant response rating, Oat, Wild ([1]; 125 g ai/ha, 0 to 100 scale): 0; Plant response rating, Kochia (kochia (Bassia scoparia) [2]; [7]): 0; Plant response rating, Kochia (kochia (Bassia scoparia) [2]; [8]): 70; Kochia plant response rating (kochia (Bassia scoparia) [3]; [7]): 40; Plant response rating, Kochia (kochia (Bassia scoparia) [3]; 125 g ai/ha, 0 to 100 scale): 70; Plant response rating, Ryegrass, Italian [4, 7]: 0; Plant response rating, Ryegrass, Italian [4, 8]: 80; Ryegrass, Italian plant response rating [5, 7]: 20; Plant response rating, Ryegrass, Italian ([5]; 125 g ai/ha, 0 to 100 scale): 80

With `C#CCN(C)C(=O)c1cc(NS(=O)(=O)C(F)(F)F)c(Cl)c(F)c1C` [Compound 337] as the compound, how does the “Plant response rating, Oat, Wild” value [1, 6] read?
The value was 0.

And the “Plant response rating, Oat, Wild” value ([1]; 125 g ai/ha, 0 to 100 scale)?
The value was 20.

What about the “Plant response rating, Kochia” value (kochia (Bassia scoparia) [2]; [7]) of the same compound?
Its value is 20.

And the “Plant response rating, Kochia” value (kochia (Bassia scoparia) [2]; [8])?
The value was 50.

What about the “Plant response rating, Kochia” value (kochia (Bassia scoparia) [3]; [6]) of the same compound?
The value was 40.

What about the “Plant response rating, Kochia” value (kochia (Bassia scoparia) [3]; 125 g ai/ha, 0 to 100 scale) of the same compound?
Its value is 70.

And the “Plant response rating, Ryegrass, Italian” value [4, 7]?
Its value is 30.

What about the “Plant response rating, Ryegrass, Italian” value [4, 8] of the same compound?
The value was 100.

What about the “Plant response rating, Ryegrass, Italian” value [5, 6] of the same compound?
Its value is 0.

And the “Plant response rating, Ryegrass, Italian” value ([5]; 125 g ai/ha, 0 to 100 scale)?
Its value is 20.

With `Cc1c(NS(=O)(=O)C(F)(F)F)cc(C(=O)N2CC(C)OC(C)C2)c(C)c1C` (stereo not shown) [Compound 327] as the compound, how does the “Plant response rating, Oat, Wild” value [1, 6] read?
Its value is 0.

What about the “Plant response rating, Oat, Wild” value ([1]; 125 g ai/ha, 0 to 100 scale) of the same compound?
The value was 0.

And the “Plant response rating, Kochia” value (kochia (Bassia scoparia) [2]; [7])?
Its value is 0.

And the “Plant response rating, Kochia” value (kochia (Bassia scoparia) [2]; [8])?
Its value is 70.

And the “Plant response rating, Kochia” value (kochia (Bassia scoparia) [3]; [6])?
Its value is 10.

And the “Plant response rating, Kochia” value (kochia (Bassia scoparia) [3]; 125 g ai/ha, 0 to 100 scale)?
Its value is 30.

What about the “Plant response rating, Ryegrass, Italian” value [4, 7] of the same compound?
Its value is 40.

And the “Plant response rating, Ryegrass, Italian” value [4, 8]?
The value was 50.

And the “Plant response rating, Ryegrass, Italian” value [5, 6]?
Its value is 0.

And the “Plant response rating, Ryegrass, Italian” value ([5]; 125 g ai/ha, 0 to 100 scale)?
Its value is 30.
